Test [1] addresses α-glucosidase from Saccharomyces cerevisiae. The experiment in a line: α-Glucosidase inhibition assay (chromogenic method, p-nitrophenyl-α-D-glucopyranoside). Format: biochemical. To be noted: pH 6.9, 37 °C; read-out: α Glucosidase Inhibition (IC50 ± S.E.M). The method, then: α-glucosidase from Saccharomyces cerevisiae was purchased from Sigma Aldrich. […] The test samples were prepared (200 µg/mL) in DMSO and 10 μL of each sample was added to 20 μL of α-glucosidase solution (prepared in 120 μL of 0.1 M phosphate buffer, pH 6.9) in a 96-well plate format and incubated for 15 min at 37 °C. After incubation, 20 μL p-nitrophenyl-α-D-glucopyranoside (5 mM) solution was added to this mixture and incubated for a further 15 min. Finally, 80 µL of Na2CO3 solution (0.2 M) was added to this solution to stop the reaction and the absorbance was measured at 410 nm with SpectraMax microplate reader, M2. […] The α-glucosidase inhibition (%) was calculated with the help of the following formula:Inhibition (%) = (Absorbance of Control − Absorbance of Sample)/(Absorbance of Control) × 100
The IC50 values of the active samples were calculated using regression equation by plotting % inhibition at various concentrations.

The target in another test is T1, jack-bean urease (Canavalia ensiformis, UniProt P07374).
T1 construct: purchased Sigma Aldrich
T1 sequence (P07374 whole entry, looked up): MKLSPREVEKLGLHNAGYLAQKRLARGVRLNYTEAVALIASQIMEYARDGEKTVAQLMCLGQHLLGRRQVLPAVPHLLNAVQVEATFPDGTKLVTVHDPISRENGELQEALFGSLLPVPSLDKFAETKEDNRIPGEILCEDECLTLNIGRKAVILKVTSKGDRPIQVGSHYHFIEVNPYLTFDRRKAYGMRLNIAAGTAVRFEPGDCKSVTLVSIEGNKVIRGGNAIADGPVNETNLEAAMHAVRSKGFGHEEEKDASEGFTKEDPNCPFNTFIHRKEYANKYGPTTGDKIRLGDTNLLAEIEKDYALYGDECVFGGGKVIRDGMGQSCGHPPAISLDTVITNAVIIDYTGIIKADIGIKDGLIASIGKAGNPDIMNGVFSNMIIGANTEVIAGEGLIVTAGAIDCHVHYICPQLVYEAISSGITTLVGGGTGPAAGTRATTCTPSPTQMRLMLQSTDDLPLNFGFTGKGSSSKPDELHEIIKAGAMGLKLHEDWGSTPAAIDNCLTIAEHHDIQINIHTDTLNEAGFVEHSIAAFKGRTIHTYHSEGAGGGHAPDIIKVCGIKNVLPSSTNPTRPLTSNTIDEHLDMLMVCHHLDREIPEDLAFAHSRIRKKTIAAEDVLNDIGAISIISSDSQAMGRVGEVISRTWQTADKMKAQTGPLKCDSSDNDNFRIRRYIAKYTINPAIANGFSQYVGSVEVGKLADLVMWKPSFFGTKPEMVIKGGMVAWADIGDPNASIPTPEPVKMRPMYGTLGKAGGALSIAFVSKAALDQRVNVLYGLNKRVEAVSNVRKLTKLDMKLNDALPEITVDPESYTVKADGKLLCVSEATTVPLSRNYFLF
The experiment in a line: biochemical. On the procedure:
The assay mixture, containing 50 μL (2 mg/mL) of jack-bean urease (purchased from Sigma Aldrich) and 100 μL of different concentration of test compounds, which were previously dissolved in ethanol 20%, was added to 850 μL of 25 mM urea and pre-incubated for 0.5 h in a water bath at 37 °C. The urease reaction was stopped after 30 min incubation by following procedure.
Urease activity was determined by measuring ammonia production using the indophenol method, as described by Weatherburn. After pre-incubation, 500 μL of phenol reagent (1% w/v phenol and 0.005% w/v sodium nitroprusside) and 500 μL of alkali reagent (1% w/v NaOH and 0.075% active chloride NaOCl) were added to 100 μL of incubation mixture and kept at 37 °C for 30 min. The absorbance was measured at 625 nm. All experiments were performed in triplicate in a final volume of 1 mL, and thiourea was used as a standard urease inhibitor.
Percentage inhibitions were calculated using the formula:(100 − (OD sample/OD control) × 100)
The IC50 values were then calculated using GraphPad Prism 5 software.

For `CCOC(=O)/C=C/[C@H]1C(C)=CC(=O)[C@H](OC)C1(C)C` (relative stereo) [Compound 1, ethyl (E)-3-((1S,5R)-5-methoxy-2,6,6-trimethyl-4-oxocyclohex-2-en-1-yl)acrylate], the IC50 (commonly the midpoint of a concentration-inhibition curve) in test [1] came to 331.47 ± 0.04 µM; at jack-bean urease, 16.87 ± 0.02 µM.
`COC(=O)/C=C/[C@H]1C(C)=CC(=O)[C@H](OC)C1(C)C` (relative stereo) [Compound 2, methyl (E)-3-((1S,5R)-5-methoxy-2,6,6-trimethyl-4-oxocyclohex-2-en-1-yl)acrylate]: the IC50 in test [1] was found to be 294.18 ± 0.07 µM; against jack-bean urease, 13.71 ± 0.07 µM.
`CO[C@H]1C(=O)C=C(C)[C@H](/C=C/C(C)=O)C1(C)C` (relative stereo) [Compound 3, (4S,6R)-6-methoxy-3,5,5-trimethyl-4-((E)-3-oxobut-1-en-1-yl)cyclohex-2-en-1-one]: the 50% inhibitory concentration (IC50) came to 310.68 ± 0.05 µM in test [1] and 10.46 ± 0.03 µM at jack-bean urease.

The values above are taken from article PMC9370616, “Three New Acrylic Acid Derivatives from Achillea mellifolium as Potential Inhibitors of Urease from Jack Bean and α-Glucosidase from Saccharomyces cerevisiae” (Molecules, 2022).
